According to US11339161B2, “Triazolo pyridines as modulators of gamma-secretase” (Boehringer Ingelheim International GmbH, priority 2017, dated 2022):
Where two headings read alike, the source gives them in different places.

How the values were obtained:
FGFR1 = FGFR1 (Homo sapiens, UniProt P11362); test: Z'-LYTE SelectScreen biochemical kinase assay FGFR1
From the text: (§1) Thermo Fisher Scientific SelectScreen™ Biochemical Kinase Profiling Service Z′-LYTE™ Screening Protocol and Assay Conditions Assay Theory
(§2) The […] biochemical assay employs a fluorescence-based, coupled-enzyme format and is based on the differential sensitivity of phosphorylated and non-phosphorylated peptides to proteolytic cleavage. The peptide substrate is labeled with two fluorophores—one at each end—that make up a FRET pair. In the primary reaction, the kinase transfers the gamma-phosphate of ATP to a single tyrosine, serine or threonine residue in a synthetic FRET-peptide. In the secondary reaction, a site-specific protease recognizes and cleaves non-phosphorylated FRET-peptides. Phosphorylation of FRET-peptides suppresses cleavage by the Development Reagent. Cleavage disrupts FRET between the donor (i.e., coumarin) and acceptor (i.e., fluorescein) fluorophores on the FRET-peptide, whereas uncleaved, phosphorylated FRET-peptides maintain FRET. A ratiometric method, which calculates the ratio (Emission Ratio=Coumarin emission (445 nm)/Fluorescein emission (520 nm)) of donor emission to acceptor emission after excitation of the donor fluorophore at 400 nm, is used to quantitate reaction progress, as shown in the equation below. A significant benefit of this ratiometric method for quantitating reaction progress is the elimination of well-to-well variations in FRET-peptide concentration and signal intensities. As a result, the assay yields very high Z′-factor values (>0.7) at a low percent phosphorylation. Both cleaved and uncleaved FRET-peptides contribute to the fluorescence signals and therefore to the Emission Ratio. The extent of phosphorylation of the FRET-peptide can be calculated from the Emission Ratio. The Emission Ratio will remain low if the FRET-peptide is phosphorylated (i.e., no kinase inhibition) and will be high if the FRET-peptide is non-phosphorylated (i.e., kinase inhibition).
(§3) The Test Compounds are screened in 1% DMSO (final) in the well. For 10 point titrations, 3-fold serial dilutions are conducted from the starting concentration of the customer's choosing.
(§4) All Peptide/Kinase Mixtures are diluted to a 2× working concentration in the appropriate Kinase Buffer (see section Kinase Specific Assay Conditions for a complete description).
(§5) All ATP Solutions are diluted to a 4× working concentration in Kinase Buffer (50 mM HEPES pH 7.5, 0.01% BRIJ-35, 10 mM MgCl2, 1 mM EGTA). ATP Km apparent is previously determined using a Z″-LYTE assay.
(§6) The Development Reagent is diluted in Development Buffer (see section Kinase-Specific Assay Conditions—Direct and Cascade for a complete description).
(§7) Bar-coded Corning, low volume NBS, black 384-well plate (Corning Cat. #4514) • 1. 100 nL—100× Test Compound in 100% DMSO • 2. 2.4 μL—Kinase buffer • 3. 5 μL—2× Peptide/Kinase Mixture • 4. 2.5 μL—4×ATP Solution • 5. 30—second plate shake • 6. 60—minute Kinase Reaction incubation at room temperature • 7. 5 μL—Development Reagent Solution • 8. 30—second plate shake • 9. 60—minute Development Reaction incubation at room temperature • 10. Read on fluorescence plate reader and analyze the data Z′-LYTE Assay Controls
(§8) SelectScreen Kinase Profiling Service uses XLfit from IDBS. The dose response curve is curve fit to model number 205 (sigmoidal dose-response model).
(§9) The 2×FGFR1/Tyr 04 mixture is prepared in 50 mM HEPES pH 7.5, 0.01% BRIJ-35, 10 mM MgCl2, 4 mM MnCl2, 1 mM EGTA, 2 mM DTT. The final 10 μL Kinase Reaction consists of 0.44-2.45 ng FGFR1 and 2 μM Tyr 04 in 50 mM HEPES pH 7.5, 0.01% BRIJ-35, 10 mM MgCl2, 2 mM MnCl2, 1 mM EGTA, 1 mM DTT. After the 1 hour Kinase Reaction incubation, 5 μL of a 1:64 dilution of Development Reagent B is added.

LYN B = LYN B (Homo sapiens, UniProt P07948); test: Z'-LYTE SelectScreen biochemical kinase assay LYN B
From the text: as §1, §2, §3, §4, §5, §6, §7, §8
(§10) The 2×LYN B/Tyr 02 mixture is prepared in 50 mM HEPES pH 7.5, 0.01% BRIJ-35, 10 mM MgCl2, 1 mM EGTA. The final 10 μL Kinase Reaction consists of 0.85-14.8 ng LYN B and 2 μM Tyr 02 in 50 mM HEPES pH 7.5, 0.01% BRIJ-35, 10 mM MgCl2, 1 mM EGTA. After the 1 hour Kinase Reaction incubation, 5 μL of a 1:128 dilution of Development Reagent A is added.

CSF1R (FMS) = CSF1R (FMS) (Homo sapiens, UniProt P07333); test: Z'-LYTE SelectScreen biochemical kinase assay CSF1R (FMS)
From the text: as §1, §2, §3, §4, §5, §6, §7, §8
as §10, with “The 2×CSF1R (FMS)/Tyr 01” for “The 2×LYN B/Tyr 02”, “of 0.2-40” for “of 0.85-14.8”, “ng CSF1R (FMS)” for “ng LYN B”, “Tyr 01” for “Tyr 02”, “a 1:256” for “a 1:128”, “Reagent B” for “Reagent A”

FLT4 (VEGFR3) = FLT4 (VEGFR3) (Homo sapiens, UniProt P35916); test: Z'-LYTE SelectScreen biochemical kinase assay FLT4 (VEGFR3)
From the text: as §1, §2, §3, §4, §5, §6, §7, §8
as §9, with “2×FLT4 (VEGFR3)/Tyr” for “2×FGFR1/Tyr”, “2-10.5” for “0.44-2.45”, “FLT4 (VEGFR3)” for “FGFR1”

[1] = 10 μmolar compound concentration, ATP at Km app, read-out: FGFR1 inhibition
[2] = read-out: % Inhibition mean FGFR1
[3] = 10 μmolar compound concentration, ATP at Km app, read-out: LYN B inhibition
[4] = read-out: % Inhibition mean LYN B
[5] = 10 μmolar compound concentration, ATP at Km app, read-out: CSF1R (FMS) inhibition
[6] = read-out: % Inhibition mean CSF1R (FMS)
[7] = 10 μmolar compound concentration, ATP at Km app, read-out: FLT4 (VEGFR3) inhibition
[8] = read-out: % Inhibition mean FLT4 (VEGFR3)

FGFR1, sequence (P11362 22-822): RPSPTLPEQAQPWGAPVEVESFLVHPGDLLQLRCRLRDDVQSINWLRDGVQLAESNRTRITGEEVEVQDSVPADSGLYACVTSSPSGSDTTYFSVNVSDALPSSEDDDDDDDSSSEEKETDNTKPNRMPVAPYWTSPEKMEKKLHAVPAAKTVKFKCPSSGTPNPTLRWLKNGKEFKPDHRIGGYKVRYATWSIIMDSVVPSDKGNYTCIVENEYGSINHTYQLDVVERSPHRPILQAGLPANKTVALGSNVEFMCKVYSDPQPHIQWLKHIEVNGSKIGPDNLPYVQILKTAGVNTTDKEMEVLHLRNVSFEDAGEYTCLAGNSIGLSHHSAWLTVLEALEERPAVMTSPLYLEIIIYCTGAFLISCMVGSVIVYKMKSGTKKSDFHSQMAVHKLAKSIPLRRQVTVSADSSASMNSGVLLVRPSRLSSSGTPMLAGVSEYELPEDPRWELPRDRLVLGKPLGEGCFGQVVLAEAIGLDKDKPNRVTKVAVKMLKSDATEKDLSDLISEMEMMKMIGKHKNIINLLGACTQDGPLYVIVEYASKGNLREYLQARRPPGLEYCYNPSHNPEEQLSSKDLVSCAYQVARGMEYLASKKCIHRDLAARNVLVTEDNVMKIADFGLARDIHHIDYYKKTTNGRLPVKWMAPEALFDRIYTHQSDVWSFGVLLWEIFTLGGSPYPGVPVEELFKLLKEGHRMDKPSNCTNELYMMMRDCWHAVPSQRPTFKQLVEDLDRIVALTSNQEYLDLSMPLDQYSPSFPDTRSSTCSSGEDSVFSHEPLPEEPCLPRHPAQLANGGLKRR
FLT4 (VEGFR3), sequence (P35916 25-1363): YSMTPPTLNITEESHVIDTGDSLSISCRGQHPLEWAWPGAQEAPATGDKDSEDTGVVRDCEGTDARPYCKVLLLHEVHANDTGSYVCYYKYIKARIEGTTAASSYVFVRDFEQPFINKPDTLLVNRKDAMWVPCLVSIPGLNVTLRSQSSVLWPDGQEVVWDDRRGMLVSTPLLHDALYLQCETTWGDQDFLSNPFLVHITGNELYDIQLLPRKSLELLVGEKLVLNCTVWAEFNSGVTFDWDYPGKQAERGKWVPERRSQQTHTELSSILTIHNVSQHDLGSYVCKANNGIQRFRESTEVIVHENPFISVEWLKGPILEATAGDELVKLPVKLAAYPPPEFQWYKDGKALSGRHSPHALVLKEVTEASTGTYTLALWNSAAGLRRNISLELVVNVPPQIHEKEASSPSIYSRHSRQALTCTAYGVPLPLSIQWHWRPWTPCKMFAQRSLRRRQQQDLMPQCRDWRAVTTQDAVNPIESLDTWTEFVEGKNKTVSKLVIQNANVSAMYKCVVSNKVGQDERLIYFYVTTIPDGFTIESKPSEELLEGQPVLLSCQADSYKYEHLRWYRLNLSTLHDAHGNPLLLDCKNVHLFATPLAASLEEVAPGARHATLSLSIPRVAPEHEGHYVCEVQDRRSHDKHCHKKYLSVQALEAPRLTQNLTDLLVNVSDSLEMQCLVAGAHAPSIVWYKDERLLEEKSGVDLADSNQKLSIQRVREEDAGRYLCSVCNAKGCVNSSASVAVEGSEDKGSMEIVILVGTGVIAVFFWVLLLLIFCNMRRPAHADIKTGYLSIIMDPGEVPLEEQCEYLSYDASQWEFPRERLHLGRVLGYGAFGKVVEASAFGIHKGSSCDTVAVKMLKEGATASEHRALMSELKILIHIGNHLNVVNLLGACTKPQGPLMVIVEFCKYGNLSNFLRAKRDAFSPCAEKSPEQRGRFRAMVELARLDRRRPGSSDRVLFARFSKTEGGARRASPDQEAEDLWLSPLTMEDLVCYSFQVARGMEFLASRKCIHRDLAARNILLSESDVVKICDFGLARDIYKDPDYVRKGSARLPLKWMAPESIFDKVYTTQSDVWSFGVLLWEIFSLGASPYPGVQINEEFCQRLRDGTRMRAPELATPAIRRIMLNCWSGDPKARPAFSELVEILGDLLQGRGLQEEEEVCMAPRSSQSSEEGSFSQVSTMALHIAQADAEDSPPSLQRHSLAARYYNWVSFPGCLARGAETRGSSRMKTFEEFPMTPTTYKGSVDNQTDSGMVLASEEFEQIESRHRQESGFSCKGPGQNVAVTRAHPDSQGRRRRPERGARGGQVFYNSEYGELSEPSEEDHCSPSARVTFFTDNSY
LYN B, sequence (P07948 1-491 isoform P07948-2): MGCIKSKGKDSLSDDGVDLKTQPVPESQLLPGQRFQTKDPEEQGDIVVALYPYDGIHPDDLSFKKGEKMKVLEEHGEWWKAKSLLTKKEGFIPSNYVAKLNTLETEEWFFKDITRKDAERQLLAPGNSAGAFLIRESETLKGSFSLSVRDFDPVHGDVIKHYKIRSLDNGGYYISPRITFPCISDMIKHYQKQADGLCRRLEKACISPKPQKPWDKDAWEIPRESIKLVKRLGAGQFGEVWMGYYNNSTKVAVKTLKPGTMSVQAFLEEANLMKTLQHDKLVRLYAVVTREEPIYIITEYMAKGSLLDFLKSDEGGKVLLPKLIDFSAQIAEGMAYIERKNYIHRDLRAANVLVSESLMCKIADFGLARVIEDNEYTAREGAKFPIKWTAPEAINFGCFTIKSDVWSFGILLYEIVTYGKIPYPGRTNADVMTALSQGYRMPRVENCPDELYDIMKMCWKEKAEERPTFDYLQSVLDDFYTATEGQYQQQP
CSF1R (FMS), sequence (P07333 20-972): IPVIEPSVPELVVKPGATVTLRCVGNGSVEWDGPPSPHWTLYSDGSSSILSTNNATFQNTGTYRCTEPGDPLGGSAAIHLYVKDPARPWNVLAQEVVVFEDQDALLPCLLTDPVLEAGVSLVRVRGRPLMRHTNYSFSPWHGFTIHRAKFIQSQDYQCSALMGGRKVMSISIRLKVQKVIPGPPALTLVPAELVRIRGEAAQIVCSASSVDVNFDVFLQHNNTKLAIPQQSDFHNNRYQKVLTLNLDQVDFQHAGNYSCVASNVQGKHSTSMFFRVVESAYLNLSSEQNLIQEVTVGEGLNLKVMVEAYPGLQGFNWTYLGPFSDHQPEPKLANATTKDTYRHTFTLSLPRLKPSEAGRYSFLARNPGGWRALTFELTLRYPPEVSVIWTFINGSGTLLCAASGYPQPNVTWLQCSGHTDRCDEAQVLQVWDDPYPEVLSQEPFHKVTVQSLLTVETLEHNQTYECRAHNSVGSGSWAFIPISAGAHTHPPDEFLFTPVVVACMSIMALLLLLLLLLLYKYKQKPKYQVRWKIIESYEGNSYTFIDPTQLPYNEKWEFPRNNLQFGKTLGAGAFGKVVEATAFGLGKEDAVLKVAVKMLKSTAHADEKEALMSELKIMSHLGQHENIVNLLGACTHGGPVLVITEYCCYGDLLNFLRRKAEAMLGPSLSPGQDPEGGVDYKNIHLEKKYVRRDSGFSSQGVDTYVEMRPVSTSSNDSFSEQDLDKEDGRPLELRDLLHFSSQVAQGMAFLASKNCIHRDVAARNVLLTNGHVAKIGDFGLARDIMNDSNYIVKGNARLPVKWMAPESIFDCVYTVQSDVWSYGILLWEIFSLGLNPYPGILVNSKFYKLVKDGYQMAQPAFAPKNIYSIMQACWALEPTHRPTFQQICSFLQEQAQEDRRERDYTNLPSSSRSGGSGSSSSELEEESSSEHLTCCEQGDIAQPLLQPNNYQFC

| inhibition at 10 µM (FGFR1; [1]) [%] | inhibition at 10 µM (FGFR1; [2]) [%] | inhibition at 10 µM (LYN B; [3]) [%] | inhibition at 10 µM (LYN B; [4]) [%] | inhibition at 10 µM (CSF1R (FMS); [5]) [%] | inhibition at 10 µM (CSF1R (FMS); [6]) [%] | inhibition at 10 µM (FLT4 (VEGFR3); [7]) [%] | inhibition at 10 µM (FLT4 (VEGFR3); [8]) [%] | SMILES |
| --- | --- | --- | --- | --- | --- | --- | --- | --- |
| < 40 | 19 | < 40 | 24 | 40 to 80 | 62 | 40 to 80 | 62 | CCn1ncc2c1CCC(Nc1nc3c(-c4ccc(OC)nc4)cccn3n1)C2 (stereo not shown) [Example 71, (1-Ethyl-4,5,6,7-tetrahydro-1H-indazol-5-yl)-[8-(6-methoxy-pyridin-3-yl)-[1,2,4]triazolo[1,5-a]pyridine-2-yl]-amine] |
| < 40 | 21 | < 40 | 21 | < 40 | 15 | < 40 | 13 | CCCCCn1ncc2c1CCC(Nc1nc3c(-c4ccc(F)cc4C)cccn3n1)C2 (stereo not shown) [Example 47, [8-(4-fluoro-2-methyl-phenyl)-[1,2,4]triazolo[1,5-a]pyridine-2-yl]-(1-pentyl-4,5,6,7-tetrahydro-1H-indazol-5-yl)-amine] |
| < 40 | 18 | < 40 | 22 | < 40 | 15 | < 40 | 19 | CCn1nc(Cl)c2c1CCC(Nc1nc3c(-c4ccc(F)cc4C)cccn3n1)C2 (stereo not shown) [Example 48, (3-Chloro-1-ethyl-4,5,6,7-tetrahydro-1H-indazol-5-yl)-[8-(4-fluoro-2-methyl-phenyl)-[1,2,4]triazolo[1,5-a]pyridine-2-yl]-amine] |
| < 40 | 15 | < 40 | 17 | 40 to 80 | 42 | < 40 | 22 | Cc1cc(F)ccc1-c1cccn2nc(NC3CCc4c(cnn4C)C3)nc12 (stereo not shown) [Example 10, [8-(4-fluoro-2-methyl-phenyl)-[1,2,4]triazolo[1,5-a]pyridine-2-yl]-(1-methyl-4,5,6,7-tetrahydro-1H-indazol-5-yl)-amine] |
| < 40 | 22 | < 40 | 22 | 40 to 80 | 42 | < 40 | 39 | CCn1ncc2c1CCC(Nc1nc3c(-c4cccc(Cl)c4)cccn3n1)C2 (stereo not shown) [Example 59, [8-(3-Chloro-phenyl)-[1,2,4]triazolo[1,5-a]pyridine-2-yl]-(1-ethyl-4,5,6,7-tetrahydro-1H-indazol-5-yl)-amine] |
